From article PMC6832219, “Synthesis of Novel Baicalein Amino Acid Derivatives and Biological Evaluation as Neuroprotective Agents” (Molecules, 2019)

Legend:
H9C2 cells [1] = assay: Toxicity on normal H9C2 cells (MTT assay); format: cell-based; details: read-out: Survival Rate (%)
injured SH-SY5Y cells = assay: Protective effect against tert-butyl hydroperoxide-induced SH-SY5Y neurotoxicity cells (MTT assay); format: cell-based; details: Homo sapiens; for viability at 3.125 µM / viability at 6.25 µM / viability at 12.5 µM / viability at 25 µM / viability at 50 µM: injured SH-SY5Y cells, read-out: Proliferation Rate (%); for EC50: tert-butyl hydroperoxide-induced SH-SY5Y neurotoxicity, read-out: EC50 for protecting injured SH-SY5Y cells;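 on Proliferation Rate (%): 0% equals CoCl2-injured cells and 100% equals NGF-treated cells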
Method: The protective effects of baicalein derivatives in vitro was evaluated against tert-butyl, hydroperoxide-induced, SH-SY5Y neurotoxicity cells using an MTT assay. In addition, their toxicity evaluation was tested on normal H9C2 cells. The resulting proliferation rates (%) at different concentrations, as well as their 50% effective concentrations (EC50) for protecting damaged SH-SY5Y cells of the baicalein amino acid derivatives, are summarized in Table 2.
(§1) The SH-SY5Y ([…]) and H9C2 ([…]) cell lines were obtained from the Chinese Academy of Medical Sciences and Peking Union Medical College. All of the cell lines were grown in dulbecco’s modified eagle medium (DMEM) with 10% (v/v) fetal bovine serum (FBS) and 1% (v/v) penicillin/streptomycin (Thermo Technologies, New York, NY, USA), under a humidified atmosphere containing 5% CO2 at 37 °C. The baicalein derivatives were dissolved in DMSO (Sigma, St. Louis, MO, USA) and added at various concentrations to the cell culture.
(§2) The protective effect of these compounds was evaluated on SH-SY5Y and H9C2 cell lines via the MTT method. The cells growing in the logarithmic phase were cultured in 96-well plates at a density 3 × 10^3 cells/well and incubated for 24 h. Then each well was treated with the required concentrations (50 µM concentrations, 25 µM concentrations, 12.5µM concentrations, 6.25 µM concentrations, and 3.125 µM concentrations) of baicalein derivatives, and incubated 36 h at 37 °C with 5% CO2. After that, the cells were induced by H2O2 (final concentration, […]) for 12 h. Control-differentiated cells were injected with new growth media at equal amounts. Before […] MTT solution (5 mg/mL) was added to each well, the cell culture fluid was discarded, and […] fresh cell culture fluid was added. The plate was incubated for a further 4 h at 37 °C. The cell supernatant medium was removed carefully, without disturbing the attached cells, and formazan crystals were solubilized by adding 150 μL DMSO into each well. The absorbance was measured at 490 nm with a plate reader (BIORAD 550 spectrophotometer, Bio-rad Life Science Development Ltd., Beijing, China). H2O2 was dissolved in DMEM medium. Wells without drugs were used as blanks. The EC50 values were defined as the concentrations that causes the maximum effect of 50%; IC50 values were defined as the concentration of compound which gives 50% growth inhibition, and were calculated using the GraphPad Prism 5. The proliferation rates of damaged SH-SY5Y cells were calculated in the following formula (1): [OD490 (compound) − OD490 (CoCl2)]/[OD490 (NGF) − OD490 (CoCl2)] × 100%(1) The EC50 values were using the equation −pEC50 = log Cmax − log 2 × (ΣP − 0.75 + 0.25Pmax + 0.25Pmin)(2) where Cmax is the maximum concentration, ΣP is the sum of proliferation rates, Pmax is the maximum value of the proliferation rate, and Pmin is the minimum value of the proliferation rate. Cell viability was expressed as a percentage of the control.

H9C2 cells [2] = assay: Toxicity on normal H9C2 cells (MTT assay); format: cell-based; details: MTT; for viability at 6.25 µM / viability at 12.5 µM / viability at 25 µM / viability at 50 µM: H9C2 cells, read-out: Survival Rate (%); for IC50: normal H9C2 cells
Method: To study cytotoxicity on normal cells, the cytotoxicity of compounds against normal H9C2 cells were tested.
as §1, §2
The inhibition rate was calculated in the following equation: % inhibition = 1 − (Sample group OD/Control group OD) × 100%(3)

Row | Structure (SMILES) | viability at 100 µM (H9C2 cells [1]) [%] | melting point [°C] | viability at 3.125 µM (injured SH-SY5Y cells) [%] | viability at 6.25 µM (injured SH-SY5Y cells) [%] | viability at 12.5 µM (injured SH-SY5Y cells) [%] | viability at 25 µM (injured SH-SY5Y cells) [%] | viability at 50 µM (injured SH-SY5Y cells) [%] | EC50 (injured SH-SY5Y cells) [µM] | viability at 6.25 µM (H9C2 cells [2]) [%] | viability at 12.5 µM (H9C2 cells [2]) [%] | viability at 25 µM (H9C2 cells [2]) [%] | viability at 50 µM (H9C2 cells [2]) [%] | IC50 (H9C2 cells [2]) [µM]
1 | CC(C)CC(NC(=O)OC(C)(C)C)C(=O)Oc1cc2oc(-c3ccccc3)cc(=O)c2c(O)c1O (centres unmarked) [Compound 15, 5,6-dihydroxy-4-oxo-2-phenyl-4H-chromen-7-yl 2-{[(tert-butoxy)carbonyl]amino}-4-methyl-pentanoate] | 159 | 199.3 | 17.8 | 42.8 | 42.5 | 41.3 | 22.3 | 23.9 | 196 | 193 | 177 | 173 | > 100
2 | CC(NC(=O)OC(C)(C)C)C(=O)Oc1c(O)cc2oc(-c3ccccc3)cc(=O)c2c1O (centres unmarked) [Compound 14, 5,7-dihydroxy-4-oxo-2-phenyl-4H-chromen-6-yl 2-{[(tert-butoxy)carbonyl]amino} propanoate] | 97.1 | 196.7 | 0.35 | 3.34 | 7.09 | 4.09 | 0.1 | 74.9 | 185 | 166 | 137 | 129 | > 100
3 | O=C(CC(NC(=O)OCc1ccccc1)C(=O)OCc1ccccc1)Oc1c(O)cc2oc(-c3ccccc3)cc(=O)c2c1O (centres unmarked) [Compound 4, 1-benzyl 5,7-dihydroxy-4-oxo-2-phenyl-4H-chromen-6-yl 2-{[(benzyloxy)carbonyl]amino} butanedioate] | 126 | 157.8 | 59.1 | 94.1 | 77.7 | 70.2 | 54.8 | 5.51 | 156 | 140 | 140 | 131 | > 100
4 | CC(C)C(NC(=O)OCc1ccccc1)C(=O)Oc1c(O)cc2oc(-c3ccccc3)cc(=O)c2c1O (centres unmarked) [Compound 1, 5,7-dihydroxy-4-oxo-2-phenyl-4H-chromen-6-yl 2-{[(benzyloxy)carbonyl]amino}-3-methylbutanoate] | 204 | 199.7 | 56 | 84.3 | 81.8 | 67.3 | 54.9 | 6.07 | 270 | 260 | 231 | 216 | > 100
5 | CN(CC(=O)Oc1cc2oc(-c3ccccc3)cc(=O)c2c(O)c1O)C(=O)OC(C)(C)C [Compound 5, 5,6-dihydroxy-4-oxo-2-phenyl-4H-chromen-7-yl 2{[(tert-butoxy)carbonyl](methyl)amino}acetate] | 76.9 | 218 | 28.4 | 37.6 | 76.4 | 78.1 | 60.7 | 9.96 | 116 | 116 | 105 | 95.1 | > 100
